The values below are quoted from earlier work in patent US9480645B2, “Omega-3 oil containing ophthalmic emulsions” (Abbott Medical Optics Inc., priority 2009, dated 2016).

For the data set the following is noted: generally as reported by the manufacturer of the commercial product.
Regarding Sorbitan monooleate, the HLB is recorded as 4.3.

Take Sorbitan monopalmitate: the HLB is recorded as 6.7.

Turning to Sorbitan monostearate, the HLB is 4.7.
